# Article PMC6934184, “Selective DNA-PKcs inhibition extends the therapeutic index of localized radiotherapy and chemotherapy” (The Journal of Clinical Investigation, 2019)
# System: Huh7
# Assay: clonogenic survival with doxorubicin
# Assay type: cell-based, human
# Conditions: NU5455 1 μM, 24 hours
structure (smiles),measurement,value
CN(C(=O)CN1CCOCC1)c1ccc2sc3c(-c4cccc5c(=O)cc(N6CC7CCC(C6)O7)oc45)cccc3c2c1 [NU5455],"Fold potentiation of doxorubicin (LD80, SER80)",3.5 fold
